ChEMBL document CHEMBL5356946, “Recent progress of small-molecule-based theranostic agents in Alzheimer's disease” (RSC Med Chem, 2023)

Target: Amyloid-beta precursor protein (Homo sapiens, UniProt P05067)
Assay: Binding affinity to Amyloid-beta (unknown origin) (1 to 42 residues) assessed as dissociation constant incubated for 30 mins by fluorescence based analysis

Amyloid-beta precursor protein, sequence (P05067 whole entry, the tested form may be a part): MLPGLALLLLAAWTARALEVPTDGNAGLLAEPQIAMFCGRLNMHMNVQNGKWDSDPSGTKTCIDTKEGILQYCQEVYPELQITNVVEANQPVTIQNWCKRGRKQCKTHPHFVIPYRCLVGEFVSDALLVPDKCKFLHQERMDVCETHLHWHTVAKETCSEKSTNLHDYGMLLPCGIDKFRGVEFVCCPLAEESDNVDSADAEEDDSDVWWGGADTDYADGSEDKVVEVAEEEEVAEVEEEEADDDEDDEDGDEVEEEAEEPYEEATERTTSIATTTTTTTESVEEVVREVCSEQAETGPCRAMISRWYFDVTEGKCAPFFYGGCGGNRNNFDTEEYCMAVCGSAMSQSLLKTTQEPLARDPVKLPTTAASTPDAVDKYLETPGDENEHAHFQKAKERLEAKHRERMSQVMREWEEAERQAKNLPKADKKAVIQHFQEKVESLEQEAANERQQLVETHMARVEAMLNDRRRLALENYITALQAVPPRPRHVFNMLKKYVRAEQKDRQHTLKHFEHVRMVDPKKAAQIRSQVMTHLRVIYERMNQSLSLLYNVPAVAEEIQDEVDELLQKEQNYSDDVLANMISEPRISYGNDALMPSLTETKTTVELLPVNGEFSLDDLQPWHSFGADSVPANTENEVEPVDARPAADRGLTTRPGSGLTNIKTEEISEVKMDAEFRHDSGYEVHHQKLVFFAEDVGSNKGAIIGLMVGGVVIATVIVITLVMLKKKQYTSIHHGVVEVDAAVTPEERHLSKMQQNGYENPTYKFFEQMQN

Kd: 7.5 nM
SMILES: CCOC(=O)CN1C(=O)/C(=C/c2ccc3c(c2)Sc2ccccc2N3C)SC1=S
